Reference: patent US5808139A (Ligand Pharmaceuticals Incorporated, priority 1994, dated 1998)
Where two headings read alike, the source gives them in different places.

Legend:
[1] = biological target: T1, human progesterone receptor (Homo sapiens, UniProt P06401); assay: Co-transfection (cis-trans) assay in CV-1 cells, agonist and antagonist mode; format: cell-based; parameters: expressed in transfected cells; host or cells: CV-1 cells (calcium phosphate transfection), whole cell extract; details: antagonist mode with 10^-8 M progesterone
T1 sequence (P06401 1-933): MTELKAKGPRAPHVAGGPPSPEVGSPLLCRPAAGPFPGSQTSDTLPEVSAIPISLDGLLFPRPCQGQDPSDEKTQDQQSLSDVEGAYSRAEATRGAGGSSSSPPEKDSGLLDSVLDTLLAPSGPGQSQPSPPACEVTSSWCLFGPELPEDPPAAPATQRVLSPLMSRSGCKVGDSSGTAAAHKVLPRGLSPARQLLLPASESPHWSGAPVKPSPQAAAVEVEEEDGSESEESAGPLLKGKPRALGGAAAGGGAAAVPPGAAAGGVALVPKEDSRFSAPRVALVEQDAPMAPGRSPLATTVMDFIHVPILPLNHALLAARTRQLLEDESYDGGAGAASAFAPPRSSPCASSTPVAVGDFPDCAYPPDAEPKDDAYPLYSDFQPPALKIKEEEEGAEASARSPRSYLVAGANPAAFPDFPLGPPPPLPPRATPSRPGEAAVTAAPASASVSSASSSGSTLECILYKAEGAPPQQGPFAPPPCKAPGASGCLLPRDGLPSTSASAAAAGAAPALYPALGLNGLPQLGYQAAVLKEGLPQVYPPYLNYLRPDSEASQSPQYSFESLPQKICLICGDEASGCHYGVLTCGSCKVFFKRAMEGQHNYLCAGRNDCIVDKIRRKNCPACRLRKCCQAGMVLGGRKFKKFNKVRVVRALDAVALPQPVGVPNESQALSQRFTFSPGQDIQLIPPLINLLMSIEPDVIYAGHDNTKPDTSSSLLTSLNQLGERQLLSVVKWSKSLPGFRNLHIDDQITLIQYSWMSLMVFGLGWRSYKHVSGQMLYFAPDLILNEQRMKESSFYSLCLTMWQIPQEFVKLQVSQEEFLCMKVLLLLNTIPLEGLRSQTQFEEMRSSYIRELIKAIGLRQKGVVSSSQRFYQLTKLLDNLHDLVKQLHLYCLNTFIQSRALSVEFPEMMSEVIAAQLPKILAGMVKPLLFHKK
Description: This assay is described in further detail in U.S. Pat. Nos. 4,981,784 and 5,071,773, which are incorporated herein by reference. The co-transfection assay provides a method for identifying functional ligands (either agonists which mimic, or antagonists which inhibit, the effect of hormones) for ligand-responsive receptor proteins.
The co-transfection assay provides a mechanism to evaluate ability of a compound to function as an agonist or antagonist of the activity modulated by an intracellular receptor. The co-transfection assay mimics an in vivo system in the laboratory. In the co-transfection assay, a cloned gene for an intracellular receptor is introduced by transfection (a procedure to induce cells to take up foreign genes) into a background cell substantially devoid of endogenous intracellular receptors. This introduced gene directs the recipient cells to make the intracellular receptor protein. A second gene is also introduced (co-transfected) into the same cells in conjunction with the intracellular receptor gene. This second gene functions as a reporter for the transcription-modulating activity of the target intracellular receptor. The reporter acts as a surrogate for the products normally expressed by a gene under control of the target receptor and its natural hormone.
A preferred reporter gene is one which expresses the firefly enzyme luciferase. The co-transfection assay can detect small molecule agonists or antagonists of target intracellular receptors. Exposing the cells to an agonist ligand increases reporter activity in the transfected cells that can be conveniently measured, reflecting ligand-dependent, intracellular receptor-mediated increases in reporter transcription. To detect antagonists, the co-transfection assay is carried out in the presence of a constant concentration of an agonist known to induce a defined reporter signal. Increasing concentrations of a test antagonist will decrease the reporter signal. The co-transfection assay is therefore useful to detect both agonists and antagonists of specific intracellular receptors. It determines not only whether a compound interacts with a particular intracellular receptor, but also whether this interaction mimics (agonizes) or blocks (antagonizes) the effects of the natural regulatory molecules on target gene expression.
Co-transfected cells are exposed to a medium to which is added the potential ligand that is being evaluated. If the candidate ligand diffuses into the cell and binds to the receptor and the resulting complex functions as an agonist, it binds to the co-transfected reporter gene and initiates transcription. When that gene is one that expresses, for example, luciferase, luciferase is produced which catalyzes a light-emitting reaction with its substrate luciferin. Thus, after cell lysis and the introduction of luciferin, the amount of light produced relative to the concentration of candidate ligand used in the assay provides a measure of the potency and efficacy of the compound tested. Antagonist activity is evaluated by adding the candidate ligand and a known agonist to the co-transfected cells.
The receptor cDNA was introduced in a mammalian expression vector under the control of the Rous Sarcoma virus LTR. […] A reporter vector was also transfected, containing a firefly luciferase gene under the control of the hormone-responsive promoter. […] The level of luciferase activity was then measured in cell extracts. Light emission is directly proportional to the effectiveness of the hormone-receptor complex in activating gene expression.
A total of three replicates per concentration point were tested for each compound, and the EC50 was calculated for each positive response. Both agonist and antagonist activity for each test compound was determined in parallel.

[2] = biological target: T1, human progesterone receptor; assay: Progesterone receptor binding (displacement of 3H-progesterone, whole cell extract of transfected CV-1 cells); parameters: expressed in transfected cells; host or cells: CV-1 cells (calcium phosphate transfection), whole cell extract; details: for Displacement of 3H-progesterone from its ligand binding site: 5 nM tritiated progesterone, 0-2.5×10^-5 M compound, 4° C., 24 hours
[3] = biological target: T1, human progesterone receptor; assay: Displacement of 3H-R5020 from progesterone receptor; details: FIG. 7c
[4] = system: human progesterone receptor altered at the Tau-1 location; assay: Co-transfection assay in CV-1 cells, progesterone receptor altered at Tau-1, antagonist activity; format: cell-based
Procedure, shortened: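 CV-1 cells co-transfected with RSV-LTR-driven human PR (altered at Tau-1) and a hormone-responsive luciferase reporter; antagonism measured against a fixed agonist concentration. Luciferase in cell extracts read, triplicate points, potency from concentration-response; […].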

Row | Compound | Progesterone receptor agonist/antagonist activity [1] | Displacement of 3H-progesterone from its ligand binding site [2] | Competition with 3H-R5020 [3] | IC50 ([4]; read-out: Potency (IC50), CV-1 cells, concentration required to reduce the maximal response by 50%) [nM] | Progesterone receptor agonist/antagonist activity ([1]; listed as 3R diastereomer of cyclocymopol monomethyl ether) | Progesterone receptor agonist/antagonist activity ([1]; listed as SO-9) | Kd [2] [nM] | Apparent Bmax of 3H-progesterone ([2]; in the presence of compound, FIG. 8) | Efficacy (% maximal response relative to RU-486), CV-1 cells ([4]; antagonist activity, relative to RU-486) [%] | IC50 ([4]; concentration required to reduce the maximal response by 50%, read-out: Potency (IC50), CV-1 cells) [nM]
1 | C=C1CC[C@@H](Br)C(C)(C)[C@@H]1Cc1cc(OC)c(Br)cc1OC(C)=O [SO-52] | progesterone receptor antagonist activity | displaced ^3 H-progesterone from its ligand binding site in a concentration-dependent manner | – | – | – | – | – | – | – | –
2 | CC#C[C@]1(O)CC[C@H]2[C@@H]3CCC4=CC(=O)CCC4=C3[C@@H](c3ccc(N(C)C)cc3)C[C@@]21C [RU-486, reference compound] | – | – | competitive antagonist of R5020 | 0.1 | – | – | – | – | – | –
3 | C=C1CC[C@@H](Br)C(C)(C)[C@@H]1Cc1cc(OC)c(Br)cc1O [SO-53, (3R)-cyclocymopol monomethyl ether] | progesterone receptor antagonist activity | displaced ^3 H-progesterone from its ligand binding site in a concentration-dependent manner | did not compete for this binding site | – | progesterone receptor antagonist activity | progesterone receptor antagonist activity | 450 | significantly increased the apparent Bmax | 85 | 965
